Laboratory results published in ChEMBL document CHEMBL6153037, “Developing dual-responsive quinolinium prodrugs of 8-hydroxyquinoline by harnessing the dual chelating sites” (Eur J Med Chem, 2025).
≈ marks a conversion by molar mass, not a printed value. Calls of active or inactive are those of the source. The calls are words filed in the database; no cut-off is given here.

Key:
[1] = Induction of apoptosis in human MCF-10A cells assessed as viable cells incubated for 24 hrs by Annexin V-FITC/PI staining based flow cytometry (reference value: 96.0 %); type: toxicity, cell-based; conditions: read-out: Activity
[2] = Toxicity in BALB/c nude mouse xenografted with human MDA-MB-231 cells assessed as body weight change at 20 mg/kg, iv administered every two days for 21 days; type: organism-based; conditions: in vivo, 504 h, time 21 day
MDA-MB-231 [3] = experiment: Antitumor activity against human MDA-MB-231 cells assessed as sphere-forming efficiency incubated for 6 hrs followed by medium replacement without compound measured after 6 days by microscopic analysis (reference value: 1.07 %); type: functional
[4] = Cytotoxicity against human MCF-10A cells assessed as inhibition of cell viability incubated for 48 hrs by MTT assay; type: toxicity, cell-based
[5] = Lipophilicity, logP of compound; type: physicochemical; conditions: octanol/water
MDA-MB-231 [6] = experiment: Induction of apoptosis in human MDA-MB-231 cells assessed as early apoptotic cells incubated for 24 hrs by Annexin V-FITC/PI staining based flow cytometry (reference value: 0.22 %); type: functional
[7] = Lipophilicity, logD of compound at pH 7.4; type: physicochemical; conditions: buffer
MCF-10A [8] = experiment: Induction of apoptosis in human MCF-10A cells assessed as late apoptotic cells incubated for 24 hrs by Annexin V-FITC/PI staining based flow cytometry (reference value: 2.16 %); type: toxicity, cell-based
MDA-MB-231 [9] = experiment: Cytotoxicity against human MDA-MB-231 cells assessed as inhibition of cell viability incubated for 48 hrs by MTT assay; type: functional, cell-based; conditions: MDA-MB-231, 48 h
MDA-MB-231 [10] = experiment: Cytotoxicity against human MDA-MB-231 cells incubated for 24 to 48 hrs by MTT assay; type: functional, cell-based; conditions: time 24-48 hrs
[11] = Solubility of compound in double distilled H2O; type: physicochemical; conditions: double distilled water
MDA-MB-231 [12] = experiment: Effect on phlorizin-induced cytotoxicity against human MDA-MB-231 cells incubated for 12 hrs by MTT assay; type: functional, cell-based
MDA-MB-231 [13] = experiment: Induction of apoptosis in human MDA-MB-231 cells assessed as late apoptotic cells incubated for 24 hrs by Annexin V-FITC/PI staining based flow cytometry (reference value: 0.17 %); type: functional
MCF-10A [14] = experiment: Induction of apoptosis in human MCF-10A cells assessed as early apoptotic cells incubated for 24 hrs by Annexin V-FITC/PI staining based flow cytometry (reference value: 1.66 %); type: toxicity, cell-based
[15] = Solubility of compound in PBS buffer at pH 7.4; type: physicochemical
[16] = Selectivity index, ratio of inhibition of DNA synthesis in human MCF-10A cells to inhibition of DNA synthesis in human MDA-MB-231 cells; type: toxicity, cell-based; conditions: MCF-10A cells and MDA-MB-231 cells
MCF-10A [17] = experiment: Induction of apoptosis in human MCF-10A cells assessed as necrotic cells incubated for 24 hrs by Annexin V-FITC/PI staining based flow cytometry (reference value: 0.17 %); type: toxicity, cell-based
MDA-MB-231 [18] = experiment: Induction of apoptosis in human MDA-MB-231 cells assessed as necrotic cells incubated for 24 hrs by Annexin V-FITC/PI staining based flow cytometry (reference value: 0.065 %); type: functional
MDA-MB-231 [19] = experiment: Induction of apoptosis in human MDA-MB-231 cells assessed as viable cells incubated for 24 hrs by Annexin V-FITC/PI staining based flow cytometry (reference value: 99.5 %); type: functional
MCF-10A [20] = experiment: Induction of apoptosis in human MCF-10A cells assessed as late apoptotic cells at 0.8 uM incubated for 24 hrs by Annexin V-FITC/PI staining based flow cytometry (reference value: 3.13 %); type: toxicity, cell-based
MCF-10A [21] = experiment: Inhibition of mitochondrial membrane potential in human MCF-10A cells assessed as increase in green fluorescence at 0.8 uM incubated for 24 hrs by JC-1 dye based analysis; type: toxicity, cell-based
MDA-MB-231 [22] = experiment: Induction of apoptosis in human MDA-MB-231 cells assessed as late apoptotic cells incubated for 24 hrs by Annexin V-FITC/PI staining based flow cytometry (reference value: 2.4 %); type: functional
MDA-MB-231 [23] = experiment: Inhibition of mitochondrial membrane potential in human MDA-MB-231 cells incubated for 24 hrs in presence of UV by JC-1 dye based analysis (reference value: 5.51 %); type: functional
MDA-MB-231 [24] = experiment: Induction of cell cycle arrest in human MDA-MB-231 cells assessed as accumulation at G0/G1 phase in presence of UV by PI staining based flow cytometry (reference value: 43.25 %); type: functional
MCF-10A [25] = experiment: Induction of apoptosis in human MCF-10A cells assessed as early apoptotic cells at 0.8 uM incubated for 24 hrs by Annexin V-FITC/PI staining based flow cytometry (reference value: 2.96 %); type: toxicity, cell-based
MDA-MB-231 [26] = experiment: Induction of apoptosis in human MDA-MB-231 cells assessed as late apoptotic cells at 0.8 uM incubated for 24 hrs by Annexin V-FITC/PI staining based flow cytometry (reference value: 5.81 %); type: functional
MDA-MB-231 [27] = experiment: Induction of apoptosis in human MDA-MB-231 cells assessed as viable cells at 0.8 uM incubated for 24 hrs by Annexin V-FITC/PI staining based flow cytometry (reference value: 86.2 %); type: functional; conditions: read-out: Activity
MDA-MB-231 [28] = experiment: Induction of cell cycle arrest in human MDA-MB-231 cells assessed as accumulation at G0/G1 phase at 0.8 uM by PI staining based flow cytometry (reference value: 64.6 %); type: functional
[29] = Induction of apoptosis in human MCF-10A cells assessed as viable cells at 0.8 uM incubated for 24 hrs by Annexin V-FITC/PI staining based flow cytometry (reference value: 92.5 %); type: toxicity, cell-based; conditions: read-out: Activity
MDA-MB-231 [30] = experiment: Induction of apoptosis in human MDA-MB-231 cells assessed as viable cells incubated for 24 hrs by Annexin V-FITC/PI staining based flow cytometry (reference value: 92.06 %); type: functional
MDA-MB-231 [31] = experiment: Anti-migration activity in human MDA-MB-231 cells at 0.8 uM incubated for 48 hrs by wound healing assay (reference value: 65.2 %); type: functional
MDA-MB-231 [32] = experiment: Induction of apoptosis in human MDA-MB-231 cells assessed as necrotic cells at 0.8 uM incubated for 24 hrs by Annexin V-FITC/PI staining based flow cytometry (reference value: 0.59 %); type: functional
MDA-MB-231 [33] = experiment: Induction of apoptosis in human MDA-MB-231 cells assessed as early apoptotic cells at 0.8 uM incubated for 24 hrs by Annexin V-FITC/PI staining based flow cytometry (reference value: 7.39 %); type: functional
MDA-MB-231 [34] = experiment: Anti-migration activity in human MDA-MB-231 cells at 0.8 uM incubated for 24 hrs by wound healing assay (reference value: 45.4 %); type: functional
MDA-MB-231 [35] = experiment: Induction of apoptosis in human MDA-MB-231 cells assessed as necrotic cells incubated for 24 hrs by Annexin V-FITC/PI staining based flow cytometry (reference value: 3.6 %); type: functional
MDA-MB-231 [36] = experiment: Induction of apoptosis in human MDA-MB-231 cells assessed as early apoptotic cells incubated for 24 hrs by Annexin V-FITC/PI staining based flow cytometry (reference value: 1.94 %); type: functional
MCF-10A [37] = experiment: Induction of apoptosis in human MCF-10A cells assessed as necrotic cells at 0.8 uM incubated for 24 hrs by Annexin V-FITC/PI staining based flow cytometry (reference value: 1.38 %); type: toxicity, cell-based
MDA-MB-231 [38] = experiment: Inhibition of mitochondrial membrane potential in human MDA-MB-231 cells assessed as increase in green fluorescence at 0.8 uM incubated for 24 hrs by JC-1 dye based analysis; type: functional, cell-based
MDA-MB-231 [39] = experiment: Cytotoxicity against human MDA-MB-231 cells assessed as decrease in cell viability at 5 uM incubated for 48 hrs by MTT assay relative to control; type: functional

SMILES: OC[C@H]1O[C@@H](Oc2ccc(COc3cccc4cccnc34)cc2)[C@H](O)[C@@H](O)[C@@H]1O
- viability at 24 h [1]: 76.6%
- Activity [2]: Non-toxic
- Activity (MDA-MB-231 [3]): 0.21%
- IC50 at 48 h [4]: 4.13 µM
- logP [5]: 3.81
- Activity (MDA-MB-231 [6]): 52.3%
- logD [7]: 4.14
- Activity (MCF-10A [8]): 13.3%
- IC50 (MDA-MB-231 [9]): 1.2 µM
- Activity (MDA-MB-231 [10]): Active
- solubility [11]: 17.3 µg/mL (≈ 41.9 µM)
- Activity (MDA-MB-231 [12]): inactive
- Activity (MDA-MB-231 [13]): 23%
- Activity (MCF-10A [14]): 9.17%
- solubility [15]: 15.6 µg/mL (≈ 37.8 µM)
- selectivity ratio [16]: 2.3
- Activity (MCF-10A [17]): 0.88%
- Activity (MDA-MB-231 [18]): 0.11%
- Activity (MDA-MB-231 [19]): 24.5%

SMILES: Oc1cccc2cccnc12 [OXYQUINOLINE]
- Activity (MCF-10A [20]): 24.4%
- Activity (MCF-10A [21]): Toxic
- Activity (MDA-MB-231 [22]): 20.48%
- inhibition (INH) (MDA-MB-231 [23]): 46.91%
- Activity (MDA-MB-231 [24]): 61.23%
- Activity [2]: Non-toxic
- Activity (MDA-MB-231 [3]): 0.19%
- Activity (MCF-10A [25]): 63.2%
- Activity (MDA-MB-231 [26]): 15.6%
- viability at 0.8 µM (MDA-MB-231 [27]): 3.03%
- Activity (MDA-MB-231 [28]): 78.2%
- viability at 24 h, 0.8 µM [29]: 8.98%
- Activity (MDA-MB-231 [30]): 44.1%
- Activity (MDA-MB-231 [31]): 5.6%
- Activity (MDA-MB-231 [32]): 0.88%
- Activity (MDA-MB-231 [33]): 80.5%
- Activity (MDA-MB-231 [34]): 3.8%
- Activity (MDA-MB-231 [35]): 2.66%
- Activity (MDA-MB-231 [36]): 33.76%
- Activity (MCF-10A [37]): 3.39%
- inhibition (MDA-MB-231 [38]): Active

SMILES: Br.[N-]=[N+]=Nc1ccc(C[n+]2cccc3cccc(O)c32)cc1
- Activity (MDA-MB-231 [39]): <25%
